{"source": "patent US20080207722A1", "about": "“Glepp-1 Inhibitors in the Treatment of Autoimmune and/or Inflammatory Disorders” (LABORATORIES SERONO SA, priority 2005, published 2008)", "key": {"[1]": {"tested_on": "Balb/c mice", "experiment": "Dextran Sodium Sulfate-induced ulcerative colitis in mice", "type": "in vivo", "settings": "for body weight loss: po", "experimental": "Ulcerative colitis (UC) was induced in female mice (Balb/c, 20-22 g, Elevage Janvier) by Dextran Sodium Sulfate (DSS 4%) administered in drinking water. The mice had free access to DSS during 7 days. Body weight was determined daily. The severity of the UC was assessed by a clinical score (range 0 to 4) estimating the constituency of the stool (0=firm, 1=loose, 2=diarrhea) and the presence of blood (0=no blood, 1=occult blood, 2=gross rectal bleeding). Seven days after the induction of the disease, the animals were sacrificed. The length and the weight of the colon were determined and the ratio Weight/Length/100 g body weight was calculated. The spleen weight was also determined.\nCompound of the invention (10, 30 & 100 mg/kg, po) was suspended in 0.5% methocel/0.25% tween 20 and was administered twice daily at days 3, 4, 5 and 6 after the induction of the UC. Sulfasalazine (200 mg/kg, po) was used as reference compound."}, "[2]": {"target": "T1, catalytic core of a human recombinant Glepp-1 (Homo sapiens, UniProt Q16827)", "T1 construct": "using the catalytic core of a human recombinant Glepp-1 as the enzyme; made in house", "T1 sequence (Q16827 938-1195 limits assumed)": "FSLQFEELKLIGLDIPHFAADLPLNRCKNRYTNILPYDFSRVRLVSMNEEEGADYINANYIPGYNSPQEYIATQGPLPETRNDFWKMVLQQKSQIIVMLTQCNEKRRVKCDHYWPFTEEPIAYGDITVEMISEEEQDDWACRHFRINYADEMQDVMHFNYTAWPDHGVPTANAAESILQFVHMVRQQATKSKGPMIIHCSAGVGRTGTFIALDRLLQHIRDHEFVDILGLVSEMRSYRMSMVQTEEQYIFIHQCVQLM", "experiment": "Glepp-1 PTP enzyme assay (DiFMUP dephosphorylation)", "type": "biochemical", "settings": "Glepp-1, DiFMUP substrate, 30 minutes at room temperature; read-out: Inhibition (IC50)", "excerpt": "The PTP Enzyme Assay aims at determining the extent of inhibition of Glepp-1 in the presence of a test compound. The inhibition is illustrated by IC50 values which denote the concentration of test compound necessary to achieve an inhibition of 50% of Glepp-1 using the following concentration of the Glepp-1 substrate DiFMUP:\nThe DiFMUP assay allows to follow the dephosphorylation of DiFMUP (6,8-DiFluoro-4-MethylUmbelliferyl Phosphate)—which is the Glepp-1 substrate—mediated by Glepp-1 into its stable hydrolysis product, i.e. DiFMU (6,8-difluoro-7-hydroxy coumarin). Due to its rather low pKa and its high quantum yield, DiFMU allows to measure both acidic and alkaline phosphatase activities with a great sensitivity.\nAssays were performed in a 96 well plate format, using the catalytic core of a human recombinant Glepp-1 as the enzyme and 6,8-DiFluoro-4-MethylUmbelliferyl Phosphate (DiFMUP, Molecular Probes, D-6567) as a substrate. Compounds to be tested were dissolved in 100% DMSO at a concentration of 2 mM. Subsequent dilutions of the test compounds (to yield a concentration of 100, 30, 10, 3, 1, 0.3, 0.1, 0.03, 0.01, 0.001 μM) were performed in 60% DMSO manually. 8 μl of diluted compound or vehicle (60% DMSO=control) was distributed to a black Costar 96 well plate. 42 μl of human recombinant Glepp-1 enzyme diluted in assay buffer (20 mM Tris HCl pH 7.5, 0.01% IGEPAL CA-630, 0.1 mM ethylenediaminetetracetic acid, 1 mM DL-Dithiothreitol) can be added to the dilutions of compound or vehicle (distributed to a black Costar 96 well plate), followed by 50 μl of DiFMUP diluted in the assay buffer. The reaction ran for 30 minutes at room temperature before reading the fluorescence intensity (integral or intensity) on a Perkin-Elmer Victor 2 spectrofluorimeter (excitation of 6,8-difluoro-7-hydroxy coumarin is at 355 nm, the emission at 460 nm, for 0.1 s). The percentage of inhibition is determined by measuring the relative fluorescence ion absence of a test compound (PTP inhibitor), i.e. with the solvent alone (5% DMSO). The IC50 values for inhibition were determined in triplicates."}, "[3]": {"tested_on": "THP-1 cells", "experiment": "In vitro chemotaxis, MCP-1-induced, THP1 cells (transwell)", "type": "cell-based", "settings": "Homo sapiens, MCP-1/CCL2 in lower chamber, 3 hours, read-out: block chemotaxis, EC50", "excerpt": "The compounds of Formula (I), (II), (III), (IV), (V), (VI) and (VII), may be subjected to the following assays: • (1) Glepp-1 binding assay (in vitro) • (2) In vitro assay(s): Cell functional effect. Effect on MCP-1-induced chemotaxis on THP-1 cells • (3) Lymphocyte recruitment by thioglycollate (in vivo model for inflammation) • (4) Collagen induced arthritis (CIA) in mice (in vivo model for inflammation) • (5) Contact hypersensitivity (CHS is a T cell-mediated model of skin inflammation) • (6) EAE (in vivo model for MS) • (7) Ulcerative colitis\nThe assay was performed as follows: After starvation of THP1 cells in serum free medium for 3 hours, 10^7 cells/ml in medium containing 0.5% BSA, and inhibitors, when indicated. 100 μl of cells were applied to the top chamber (5 μm pore size transwell plates, COSTAR, New York) and 6001 of medium containing MCP-1/CCL2, in the absence or presence of test compounds, were added to the lower chamber. After incubation at 37° C. and 5% of CO2 for 3 hours, cells that passed through the membrane were collected and counted in a Beckman Coulter® AcT 5Diff™."}, "[4]": {"settings": "10 mg/kg po twice daily days 3-6, versus vehicle treated group"}, "[5]": {"settings": "30 mg/kg po twice daily days 3-6, versus vehicle treated group"}, "[6]": {"settings": "100 mg/kg po twice daily days 3-6, versus vehicle treated group"}}, "data": [{"smiles": "CCCCCCN(Cc1ccccc1C#Cc1ccc(CCCC)cc1)C(=O)c1ccc(O)c(C(=O)O)c1", "note": "[5-{[{2-[(4-butylphenyl)ethynyl]benzyl}(hexyl)amino]carbonyl}-2-hydroxybenzoic acid]", "values": [{"measurement": "colon reduction, estimated by the Weight/Length ratio", "setting": "[1]; [4]", "result": "−47", "unit": "%"}, {"measurement": "splenomegaly reduced", "setting": "[1]; [4]", "result": "−25", "unit": "%"}, {"measurement": "colon reduction, estimated by the Weight/Length ratio", "setting": "[1]; [5]", "result": "−50", "unit": "%"}, {"measurement": "splenomegaly reduced", "setting": "[1]; [5]", "result": "−45", "unit": "%"}, {"measurement": "body weight loss", "setting": "[1]; 10 & 30 mg/kg", "result": "prevented"}]}, {"smiles": "O=C1NN(c2ccc(I)cc2)C(=O)/C1=C/c1ccc(Br)o1", "note": "[(4E)-4-[(5-bromo-2-furyl)methylene]-1-(4-iodophenyl)pyrazolidine-3,5-dione]", "values": [{"measurement": "IC50", "setting": "[2]", "result": "< 1000", "unit": "nM"}]}, {"smiles": "N#Cc1ccc(C(=O)Nc2ccc(C(=O)N/N=C3\\C(=O)Nc4ccc(I)cc43)cc2)cc1", "note": "[4-cyano-N-(4-{[(2Z)-2-(5-iodo-2-oxo-1,2-dihydro-3H-indol-3-ylidene)hydrazino]carbonyl}phenyl)benzamide]", "values": [{"measurement": "IC50", "setting": "[2]", "result": "< 1000", "unit": "nM"}]}, {"smiles": "CCCCCCCCNC(=O)c1ccc(-c2nc(CN(Cc3ccc(OCC(=O)O)cc3)C(=O)CCc3ccccc3)cs2)cc1", "note": "[(4-{[[(2-{4-[(octylamino)carbonyl]phenyl}-1,3-thiazol-4-yl)methyl](3-phenylpropanoyl)amino]methyl}phenoxy)acetic acid]", "values": [{"measurement": "IC50", "setting": "[2]", "result": "< 1000", "unit": "nM"}]}, {"smiles": "CCCCCCCCC#Cc1ccc(CN(C(=O)/C=C/c2cccc(C(F)(F)F)c2)c2ccc(O)c(C(=O)O)c2)cc1", "note": "[5-((4-dec-1-ynylbenzyl){(2E)-3-[3-(trifluoromethyl)phenyl]prop-2-enoyl}amino)-2-hydroxybenzoic acid]", "values": [{"measurement": "IC50", "setting": "[2]", "result": "< 1000", "unit": "nM"}]}, {"smiles": "CCCCCCN(Cc1ccc(C#Cc2ccc(CCCC)cc2)cc1)C(=O)c1ccc(O)c(C(=O)O)c1", "note": "[5-{[{4-[(4-butylphenyl)ethynyl]benzyl}(hexyl)amino]carbonyl}-2-hydroxybenzoic acid]", "values": [{"measurement": "IC50", "setting": "[2]", "result": "< 1000", "unit": "nM"}, {"measurement": "EC50", "setting": "[3]", "result": "1000 to 15000", "unit": "nM"}]}, {"smiles": "CCCCCCN(Cc1ccc(C#Cc2ccc(CCCC)cc2)cc1)c1ccc(O)c(C(=O)O)c1", "note": "[5-[{4-[(4-butylphenyl)ethynyl]benzyl}(hexyl)amino]-2-hydroxybenzoic acid]", "values": [{"measurement": "IC50", "setting": "[2]", "result": "< 1000", "unit": "nM"}, {"measurement": "EC50", "setting": "[3]", "result": "1000 to 15000", "unit": "nM"}, {"measurement": "colon reduction, estimated by the Weight/Length ratio", "setting": "[1]; [4]", "result": "−22", "unit": "%"}, {"measurement": "colon reduction, estimated by the Weight/Length ratio", "setting": "[1]; [5]", "result": "−28", "unit": "%"}, {"measurement": "splenomegaly reduced", "setting": "[1]; [5]", "result": "−31", "unit": "%"}, {"measurement": "colon reduction, estimated by the Weight/Length ratio", "setting": "[1]; [6]", "result": "−35", "unit": "%"}, {"measurement": "splenomegaly reduced", "setting": "[1]; [6]", "result": "−65", "unit": "%"}, {"measurement": "body weight loss", "setting": "[1]; 10, 30 & 100 mg/kg", "result": "prevented"}]}, {"smiles": "CCCCCCc1ccc(C#Cc2ccc(CN(Cc3ccc(C(F)(F)F)cc3)C(=O)C(=O)O)cc2)cc1", "note": "[{{4-[(4-hexylphenyl)ethynyl]benzyl}[4-(trifluoromethyl)benzyl]amino}-(oxo)acetic acid]", "values": [{"measurement": "IC50", "setting": "[2]", "result": "< 1000", "unit": "nM"}, {"measurement": "EC50", "setting": "[3]", "result": "1000 to 15000", "unit": "nM"}]}]}
